Experimental data published in ChEMBL document CHEMBL1201862, “PubChem BioAssay data set” (2004).
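Compound exposure: 48 hours, 5 concentrations, 96-well plates. GI50 is the concentration that inhibits growth by half.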 Activity calls are given as the source filed them. Rule as the data show it: active = GI50 up to about 1.1 µM and inactive = higher.

Tests used:
Assay in all cases: NCI anticancer screen, dose series, 48 h
HCT-116 = test system: HCT-116
HOP-92 = test system: HOP-92
UACC-257 = test system: UACC-257
ACHN = test system: ACHN
SF-295 = test system: SF-295
OVCAR-8 = test system: OVCAR-8
OVCAR-3 = test system: OVCAR-3
TK-10 = test system: TK-10
IGROV-1 = test system: IGROV-1
K562 = test system: K562
UO-31 = test system: UO-31
CCRF-CEM = test system: CCRF-CEM
SW-620 = test system: SW-620
SF-539 = test system: SF-539
UACC-62 = test system: UACC-62
NCI-H23 = test system: NCI-H23
OVCAR-4 = test system: OVCAR-4
OVCAR-5 = test system: OVCAR-5
MCF7 = test system: MCF7
Hs-578T = test system: Hs-578T

| Compound | GI50 (HCT-116) | GI50 (HOP-92) | GI50 (UACC-257) | GI50 (ACHN) | GI50 (SF-295) | GI50 (OVCAR-8) | GI50 (OVCAR-3) | GI50 (TK-10) | GI50 (IGROV-1) | GI50 (K562) | GI50 (UO-31) | GI50 (CCRF-CEM) | GI50 (SW-620) | GI50 (SF-539) | GI50 (UACC-62) | GI50 (NCI-H23) | GI50 (OVCAR-4) | GI50 (OVCAR-5) | GI50 (MCF7) | GI50 (Hs-578T) |
| --- | --- | --- | --- | --- | --- | --- | --- | --- | --- | --- | --- | --- | --- | --- | --- | --- | --- | --- | --- | --- |
| N#Cc1c2ccccc2cn1-c1ccc(F)cc1 | 16.8 µM (inactive) | 20.6 µM (inactive) | 26.9 µM (inactive) | 27.2 µM (inactive) | 23.5 µM (inactive) | > 10 µM (inactive) | 19.8 µM (inactive) | 29 µM (inactive) | 67.6 µM (inactive) | 26.7 µM (inactive) | 8.59 µM (inactive) | 31 µM (inactive) | 46.2 µM (inactive) | 24.8 µM (inactive) | 30 µM (inactive) | 17.7 µM (inactive) | 8.73 µM (inactive) | 45.6 µM (inactive) | – | – |
| CC(C)=CCC(O)[C@](C)(O)[C@H]1[C@H](O)C[C@@]2(C)[C@@H]3CCc4cc(O)c(OC5OC(CO)C(O)C(O)C5O)cc4C3(C)C(=O)C[C@]12C (some centres undefined) | > 100 µM (inactive) | > 100 µM (inactive) | > 100 µM (inactive) | > 100 µM (inactive) | > 100 µM (inactive) | > 100 µM (inactive) | > 100 µM (inactive) | > 100 µM (inactive) | 89.3 µM (inactive) | > 100 µM (inactive) | > 100 µM (inactive) | > 100 µM (inactive) | > 100 µM (inactive) | > 100 µM (inactive) | > 100 µM (inactive) | > 100 µM (inactive) | > 100 µM (inactive) | > 100 µM (inactive) | > 100 µM (inactive) | – |
| Cc1cc2c([nH]c3ccccc32)c2c1OC(C)(C)C1C3CC(C)(C)Oc4c(C)cc5c6ccccc6n(c5c43)C21 (centres undefined) | > 100 µM (inactive) | > 100 µM (inactive) | > 100 µM (inactive) | > 100 µM (inactive) | > 100 µM (inactive) | > 100 µM (inactive) | > 100 µM (inactive) | > 100 µM (inactive) | > 100 µM (inactive) | > 100 µM (inactive) | > 100 µM (inactive) | > 100 µM (inactive) | > 100 µM (inactive) | > 100 µM (inactive) | > 100 µM (inactive) | > 100 µM (inactive) | > 100 µM (inactive) | > 100 µM (inactive) | – | – |
| O=C(O)c1cc2ccccc2c(/N=N/c2c([N+](=O)[O-])cc([N+](=O)[O-])cc2S(=O)(=O)O)c1O | > 100 µM (inactive) | > 100 µM (inactive) | > 100 µM (inactive) | > 100 µM (inactive) | > 100 µM (inactive) | > 100 µM (inactive) | > 100 µM (inactive) | > 100 µM (inactive) | > 100 µM (inactive) | > 100 µM (inactive) | > 100 µM (inactive) | > 100 µM (inactive) | > 100 µM (inactive) | – | > 100 µM (inactive) | > 100 µM (inactive) | > 100 µM (inactive) | > 100 µM (inactive) | – | > 100 µM (inactive) |
| CC1CSc2nc3nc(S)nc-3c(O)n2C1 (centres undefined) | > 100 µM (inactive) | – | > 100 µM (inactive) | > 100 µM (inactive) | > 100 µM (inactive) | > 100 µM (inactive) | > 100 µM (inactive) | > 100 µM (inactive) | > 100 µM (inactive) | > 100 µM (inactive) | > 100 µM (inactive) | > 100 µM (inactive) | > 100 µM (inactive) | > 100 µM (inactive) | > 100 µM (inactive) | > 100 µM (inactive) | > 100 µM (inactive) | > 100 µM (inactive) | > 100 µM (inactive) | – |
| COc1cc([C@@H]2c3cc4c(cc3[C@@H](Nc3ccc(/N=C\c5ccc(C(=O)O[C@@H](C(=O)O[C@H]6C[C@@]7(O)[C@@H](OC(=O)c8ccccc8)[C@@H]8[C@]9(OC(C)=O)CO[C@@H]9C[C@H](O)[C@@]8(C)C(=O)[C@H](OC(C)=O)C(=C6C)C7(C)C)[C@@H](NC(=O)c6ccccc6)c6ccccc6)cc5)cc3)[C@H]3COC(=O)[C@H]23)OCO4)cc(OC)c1O | 3.28 µM (inactive) | 6.38 µM (inactive) | 28.6 µM (inactive) | 0.455 µM (active) | 1.99 µM (inactive) | 6.15 µM (inactive) | 15.9 µM (inactive) | 10.4 µM (inactive) | 12.4 µM (inactive) | 2.28 µM (inactive) | – | 0.544 µM (active) | 8.73 µM (inactive) | 1.47 µM (inactive) | 4.26 µM (inactive) | 2.75 µM (inactive) | > 50 µM (inactive) | 20.2 µM (inactive) | 0.384 µM (active) | – |
| CCN1CCC(O)(/C=C/c2ccc(OC)cc2)C(C(=O)/C=C/c2ccc(OC)cc2)C1 (centres undefined) | 3.81 µM (inactive) | 9.48 µM (inactive) | 11.1 µM (inactive) | 13.7 µM (inactive) | 11.8 µM (inactive) | > 10 µM (inactive) | 14.1 µM (inactive) | 13.8 µM (inactive) | 13.7 µM (inactive) | 2.75 µM (inactive) | 9.93 µM (inactive) | 1.34 µM (inactive) | 4.53 µM (inactive) | 13.7 µM (inactive) | 12 µM (inactive) | 12.4 µM (inactive) | 13.3 µM (inactive) | 15.2 µM (inactive) | 3.08 µM (inactive) | – |
| O=[N+]([O-])c1ccc(OCc2nnc(CCCCCCCCc3nnc(COc4ccc([N+](=O)[O-])cc4)o3)o2)cc1 | 77.6 µM (inactive) | > 100 µM (inactive) | > 100 µM (inactive) | > 100 µM (inactive) | > 100 µM (inactive) | – | > 100 µM (inactive) | > 100 µM (inactive) | > 100 µM (inactive) | > 100 µM (inactive) | > 100 µM (inactive) | – | > 100 µM (inactive) | – | > 100 µM (inactive) | 81.5 µM (inactive) | > 100 µM (inactive) | > 100 µM (inactive) | > 100 µM (inactive) | – |
| COc1ccc(-c2nnc(CCCCCCCCc3nnc(-c4ccc(OC)cc4)o3)o2)cc1 | 60.7 µM (inactive) | 41.1 µM (inactive) | > 100 µM (inactive) | > 100 µM (inactive) | 50.4 µM (inactive) | 57.9 µM (inactive) | > 100 µM (inactive) | 65.2 µM (inactive) | > 100 µM (inactive) | > 100 µM (inactive) | > 100 µM (inactive) | > 100 µM (inactive) | > 100 µM (inactive) | 63.7 µM (inactive) | – | > 100 µM (inactive) | > 100 µM (inactive) | > 100 µM (inactive) | > 100 µM (inactive) | – |
| CSc1ncnc2c1ncn2CCC(=O)OC(C)(C)C | > 100 µM (inactive) | > 100 µM (inactive) | > 100 µM (inactive) | > 100 µM (inactive) | > 100 µM (inactive) | > 100 µM (inactive) | > 100 µM (inactive) | > 100 µM (inactive) | > 100 µM (inactive) | > 100 µM (inactive) | > 100 µM (inactive) | > 100 µM (inactive) | > 100 µM (inactive) | > 100 µM (inactive) | – | > 100 µM (inactive) | > 100 µM (inactive) | > 100 µM (inactive) | > 100 µM (inactive) | – |
| COc1cc(/C=C/c2ccc(OC)c(OC)c2OC)cc(OC)c1OC | 14.6 µM (inactive) | 9.35 µM (inactive) | 20.9 µM (inactive) | 25.1 µM (inactive) | 20.8 µM (inactive) | 24.9 µM (inactive) | 16 µM (inactive) | 28.2 µM (inactive) | 28.2 µM (inactive) | 23.1 µM (inactive) | 14.1 µM (inactive) | 22.4 µM (inactive) | 29.3 µM (inactive) | 18.5 µM (inactive) | 13.4 µM (inactive) | 23.6 µM (inactive) | 25.4 µM (inactive) | 15.8 µM (inactive) | – | – |
| COc1ccc(C2CC(c3cc(C)ccc3O)=NC(N)=N2)cc1 (centres undefined) | > 100 µM (inactive) | > 100 µM (inactive) | > 100 µM (inactive) | > 100 µM (inactive) | > 100 µM (inactive) | > 100 µM (inactive) | > 100 µM (inactive) | > 100 µM (inactive) | > 100 µM (inactive) | > 100 µM (inactive) | > 100 µM (inactive) | > 100 µM (inactive) | > 100 µM (inactive) | > 100 µM (inactive) | > 100 µM (inactive) | > 100 µM (inactive) | > 100 µM (inactive) | > 100 µM (inactive) | – | – |
| COC(=O)C1=C(CCCCO[Si](C)(C)C(C)(C)C)NC(=O)N2[C@H](CCOCc3ccccc3)CC[C@@H]12 | 24 µM (inactive) | 32.1 µM (inactive) | 24.7 µM (inactive) | > 100 µM (inactive) | 33.1 µM (inactive) | – | 29.4 µM (inactive) | > 100 µM (inactive) | – | 87.9 µM (inactive) | 43.9 µM (inactive) | – | – | 33.7 µM (inactive) | > 100 µM (inactive) | 17.6 µM (inactive) | > 100 µM (inactive) | > 100 µM (inactive) | 34.4 µM (inactive) | – |
| CC1(C)CCC[C@]2(C)[C@@H]1CC[C@@]13O[C@@H]1C1=C(CO)C(=O)O[C@]14O[C@@H]4[C@@H]23 | 12.4 µM (inactive) | 14 µM (inactive) | 14 µM (inactive) | 14.3 µM (inactive) | 16.1 µM (inactive) | 12.9 µM (inactive) | 13.2 µM (inactive) | 17.6 µM (inactive) | 13.3 µM (inactive) | > 41 µM (inactive) | 6.05 µM (inactive) | – | 12.8 µM (inactive) | 17.3 µM (inactive) | 10.9 µM (inactive) | 11.7 µM (inactive) | 8.24 µM (inactive) | 15.7 µM (inactive) | 15.3 µM (inactive) | – |
